Data published in patent US10617763B2, “Compositions and methods for the treatment of presbyopia” (Presbyopia Therapies, LLC, priority 2013, dated 2020).
Values joined by “and” are separate entries in the source; they are usually repeats but may differ in a detail not shown here. Identical values can stand only once. Like-named read-outs stand apart in the source and are kept apart here.

How the values were obtained:
[1] = test system: eye; conditions: cited from earlier work
[2] = test system: eye; assay: Compositions containing mannitol with various nonionic surfactants (Example 15, Table 10); parameters: species or system human; conditions: in vivo
Excerpt: Example 15. Use of a Compound Containing Mannitol with Various Nonionic Surfactants Compositions
Of those tested only Brij® 35 was marginal due to the significant corneal irritation, hyperemia and […] that resulted.
Duration was excellent for each nonionic surfactant tested.

[3] = test system: presbyopic subjects; assay: Effect of aceclidine on vision of subjects aged 47 to 67 years (Example 1); type: in vivo, human; conditions: for L Post Dist / L Post Near / R Post Dist / R Post Near: Post Gtt 15″; for L Post Dist: left eye distance vision; for L Post Near: left eye near vision; for R Post Dist: right eye distance vision; for R Post Near: right eye near vision; for Effect: duration of effect
Procedure: Example 1 Effect of Aceclidine on Vision of Subjects Aged 47 to 67 Years
As aceclidine is an […], the clinical effectiveness may vary with different ratios. For the present studies a nearly exact 50:50 ratio of stereoisomers was measured as best determined by polarimetry.
After administration of the composition all subjects experienced an improvement in their near vision that lasted from 7 to 12 hours.

[4] = test system: eye; assay: Modulation of aceclidine concentrations in a preferred embodiment (Example 6); type: in vivo, human
Procedure: Example 6 Modulation of Aceclidine Concentrations in a Preferred Embodiment
For 1.35% w/v aceclidine— • Stinging on topical instillation 0.25/4.0 (lasting about 2-5 seconds); • Induced redness at 10 minutes: 1.0 to 1.5/4.0; • Induced redness at 30 minutes: 0.0 to 0.25/4.0; • Comfort: very high. • Wetting: very high, the eye maintaining sensation of improved wetting for most of a 24 hour period after a single topical instillation. • Depth of Focus distance: excellent. • Depth of Focus near: excellent.
In testing the above formulations on several subjects it was discovered that there is a slight range in clinical effect depending on the concentration of aceclidine, where 1.35%-1.55% w/v aceclidine is preferred, but for which 1.35% w/v and 1.45% w/v confer the desired benefits on most subjects.
Further, it is discovered that the clinical effect of 1.35% w/v aceclidine can be improved when instilled as follows: […]

[5] = Stability of aceclidine in cold chain storage, HPLC (Example 10); type: physicochemical; conditions: Example 10 composition
Procedure: Example 10 Stabile Aceclidine Formulations
20 samples of the above composition were divided evenly and stored at 25° C. and 4° C. Prior to storage, initial concentrations of aceclidine were measured using […] (“HPLC”). The amount of aceclidine in each solution was calculated by the area under the principal peak compared to a reference solution of aceclidine. Samples were then subject to storage for 3 months. Aceclidine measurements were taken at 1, 2 and 3 months.

[6] = test system: emmetrope over the age of 45; assay: Effects of pilocarpine and aceclidine with or without tropicamide and carrier on near and distance vision (FIG. 1); type: in vivo, human
Excerpt: Subject is an emmetrope over the age of 45 with a baseline near vision of 20.100 and baseline distance vision of 20.20. Topical administration to the eye of 1% w/v pilocarpine in saline solution results in an improvement of near vision to 20.40 (8a), however this improvement comes at the expense of a reduction in distance vision to 20.100 (8b). […] A proper drug carrier can also have a beneficial effect.

[7] = test system: eye; assay: Effect of concentration of aceclidine, brimonidine, guanfacine, fadolmidine, tropicamide and additives (Example 3); type: in vivo, human
Procedure: All percentages are w/v. Scores for nasal congestion, stinging initial, stinging, 3 min, redness initial, redness 15 min, whitening, pain and overall are out of 4.
“pt” reflects size of print materials, 4 being equivalent to 20/20 vision and 3 to 20/15 vision.
D/C stands for discontinued after eye washing due to intolerable stinging.
(§1) All baseline vision data was based on vision corrected with distance contact lenses.
AB4T and AB6T were repeated both monocularly and binocularly.

[8] = test system: eye; conditions: for indoor night vision: pH 7.5; for dimming: pH 7.0
Excerpt: However, because α-2 agonists are shifted to their ionized equilibrium an acidic pH is somewhat offset by the fact such agonists exert greater affect at neutral or alkaline pH. Therefore each α-2 agonist has a preferred pH range depending on its lipophilicity and pKa value when added to the inventive compositions with aceclidine.

[9] = test system: eye; assay: Effect of concentration of aceclidine and tropicamide, topical instillation (Example 2); type: in vivo, human
Excerpt: as §1

[10] = aceclidine 1.1% w/v plus 0.125% w/v tropicamide (subjects 4 and 5)
[11] = aceclidine 1.5% w/v, same vehicle, one subject

In the case of `Brc1c(NC2=NCCN2)ccc2nccnc12` [brimonidine], the “rebound redness, patients” value ([1]; brimonidine 0.20% w/v (Alphagan®) twice daily) is listed as 25% and the “tachyphylaxis of pupil modulation, treated subjects” value ([1]; brimonidine 0.20% w/v topically for night vision, within four weeks of use) is listed as roughly 100%.

In the case of Polysorbate 80, the “Redness 1 hr” value [2] was 0.5 and the Stinging [2] was 0.25.

With `CC(=O)OC1CN2CCC1CC2` (racemic) [Aceclidine, aceclidine] the “L Post Dist” value [3, 10] was 20.15 and 20.20, the “L Post Dist” value [3, 11] was 20.20 (2×) and 20.30 and 20.25 (2×) and the “L Post Near” value [3, 10] was 20.15 and 20.25. For the same compound, the “L Post Near” value [3, 11] was 20.15 (3×) and 20.30 and 20.20, the “R Post Dist” value [3, 10] was 20.15 and 20.20 and the “R Post Dist” value ([3]; aceclidine 1.5% w/v in 5.5% HPβCD, 0.75% CMC, 0.25% NaCl, 0.01% BAK, one subject) was 20.20 (3×) and 20.25 (2×). The “R Post Near” value [3, 10] was 20.20 and 20.25, the “R Post Near” value [3, 11] was 20.15 (3×) and 20.20 and 20.25 and the “Effect” value [3, 10] was 12.00 h and 7.00 h. For the same compound, the “Effect” value [3, 11] was 8.00 h (4×) and 9.00 h, the Comfort ([4]; 1.35% w/v aceclidine) was “very high” and the “Depth of Focus distance” value ([4]; 1.35% w/v aceclidine) was “excellent”. The “Depth of Focus near” value ([4]; 1.35% w/v aceclidine) was “excellent”, the “Stinging on topical instillation” value ([4]; 1.35% w/v aceclidine in the preferred embodiment of Example 6, lasting about 2-5 seconds) was 0.25 /4.0 and the “aceclidine remaining, 4° C., 1 month” value [5] was 93%. The “aceclidine remaining, 4° C., 2 months” value [5] was 92%, the “aceclidine remaining, 4° C., 3 months” value [5] was 88% and the “aceclidine remaining, 4° C., Initial” value [5] was 100%. For the same compound, the “aceclidine remaining, 25° C., 1 month” value [5] was 92%, the “aceclidine remaining, 25° C., 2 months” value [5] was 75% and the “aceclidine remaining, 25° C., 3 months” value [5] was 50%. The “aceclidine remaining, 25° C., Initial” value ([5]; pH about 4.75) was 100%, the “time period of near vision improvement” value ([6]; 1.55% w/v aceclidine in saline solution) was 6 h and the near vision ([6]; aceclidine in carrier plus 0.042% w/v tropicamide) was 20.15. For the same compound, the near vision ([6]; aceclidine in carrier: 5.5% HPβCD, 0.75% CMC, 0.25% NaCl, 0.01% BAK) was “better than 20.20”, the distance vision ([6]; miotic in saline solution (1% w/v pilocarpine; 1.55% w/v aceclidine), baseline distance vision 20.20) was “without any effect on the baseline distance vision” and the near vision ([6]; miotic in saline solution (1% w/v pilocarpine; 1.55% w/v aceclidine), baseline near vision 20.100) was 20.40. The near vision improvement ([7]; aceclidine 1.25% w/v (not shown)) was 20.25-20.30, the “duration of corrected near and distance vision to 20.20 or better” value ([7]; aceclidine 1.55% w/v) was “at least 6 hours” and the “size of the pupil” value ([7]; aceclidine 1.55% w/v, 30 minutes after topical instillation) was “about 1.63 mm”. The “duration (hrs)” value ([7]; in vivo) was “about 7.5 hrs”, the anterior chamber shallowing ([8]; with further inclusion of a cycloplegic agent) was 0.04 mm and the “Time (hr)” value ([9]; duration of the effect) was “at least 10 hr”. The “Miosis (OU) (1 hr)” value ([9]; pupil size, both eyes, 1 hour after topical instillation, baseline pupil 3 mm photopic, 5 mm mesopic) was 1.63 mm.

For Polyoxyl 35 castor oil, the “Redness 1 hr” value [2] was 0.25 and the Stinging [2] was 0.

In the case of `CC[C@@H]1C(=O)OC[C@@H]1Cc1cncn1C` [pilocarpine], the distance blur ([1]; pilocarpine instilled monocularly) is given as 2-3 lines and the pupil size ([1]; upon instillation of 1.0% pilocarpine, most subjects) is given as no less than 2.3 mm.

For Poloxamer 407, the “Redness 1 hr” value [2] was 1 and the Stinging [2] was 0.5.

In the case of Tyloxapol, the “Redness 1 hr” value [2] was 0.25-2.5 and the Stinging [2] was 0-2.

For tropicamide, the indoor night vision ([8]; 0.035% w/v tropicamide in 1.55% w/v aceclidine composition) was “slight dimming”, the dimming ([8]; 0.040% w/v tropicamide in 1.53% or 1.45% w/v aceclidine composition) was “moderate dimming” and the indoor night vision ([8]; 0.042% w/v tropicamide in 1.55% w/v aceclidine composition) was “normal indoor night vision”. The dimming ([8]; 0.044% w/v tropicamide in 1.53% or 1.45% w/v aceclidine composition) was “dimming became almost undetectable”, the brow ache ([8]; tropicamide 0.01% w/v with aceclidine) was “slightly reduce brow ache” and the brow ache ([8]; tropicamide 0.030% w/v with aceclidine) was “further reduce brow ache”. For the same compound, the brow ache ([8]; tropicamide 0.04% to about 0.07% w/v with aceclidine) was “completely eliminate brow ache”.

For Poloxamer 188, the “Redness 1 hr” value [2] was 0.25-2.5 and the Stinging [2] was 0-2.
